Data published in patent publication US20220378763A1, “COMPOUND FOR TREATMENT OF ACUTE INFLAMMATION IN THE MYOCARDIUM” (CALPROTECT AB, priority 2019, published 2022).

Key:
[1] = tested on: Nur77 response elements NBRE and NurRE in RAW264.7 macrophages; experiment: Nur77 activity luciferase reporter assay in RAW264.7 macrophages stimulated with S100A9; assay type: cell-based, mouse; settings: S100A9 20 μg/mL, ABR-238901 100 μM, 16 hours
Protocol: Low-passage RAW264.7 mouse macrophages (ATCC #TIB-71) were seeded at 125.000 cells/mL in DMEM medium containing 2 mM L-glutamine (Gibco), 10% Fetal Calf Serum (Gibco), and 1% penicillin/streptomycin (Invitrogen). The next day, cells were transfected with pXP1-NurRE-fluc or pGL2-4xNBRE-fluc firefly luciferase Nur77 reporter constructs using Lipofectamine LTX with PLUS reagent (Invitrogen) according to manufacturer's instructions. pRluc-N3, which constitutively expresses Renilla luciferase from the CMV promoter, was co-transfected as an internal control to verify transfection efficiency. Extracellular S100A9 (20 μg/mL) was incubated in the presence of 10 μM ZnCl2 (Sigma) for 15 minutes with or without 100 μM of ABR-238901, and added to the cells 4 hours after transfection. After 16 hours of stimulation, the cells were washed and firefly and Renilla luciferase activities were determined using the Dual-Luciferase Reporter Assay System and a GloMax luminescent plate reader (both Promega).

[2] = tested on: C57BL/6 mice with permanent coronary artery ligation; experiment: MI by permanent coronary artery ligation, long-term (21 days) treatment: echocardiography and scar size; assay type: in vivo, mouse; settings: treatment for 21 days
Protocol: Ultrasound measurements were performed at day −1 (baseline), 7, and 21 to assess cardiac function using a Vevo 770 echocardiographic imaging system with a 707B probe (VisualSonics, Toronto, Canada). In selected experiments, additional assessment was performed on days 3 and 14. The mice were anesthetized using 1-3% isoflurane and hair was carefully removed using depilatory cream. To maintain body temperature, the mice were placed in supine position on a heated surface (37° C.). Two-dimensional M-mode images were recorded in the parasternal short-axis view at the mid-papillary level. Five complete cardiac cycles were traced to calculate fractional shortening, ejection fraction, left ventricular systolic volume, and left ventricular diastolic volume by using the VisualSonics software.
At 21 days after MI, the hearts were perfused with ice cold PBS and excised under ketamine/xylazine anesthesia. Subsequently the hearts were fixed in 4% (w/v) paraformaldehyde and embedded in paraffin. The hearts were sectioned transversely from the apex to the level of the suture, and 6 μm thick sections were collected at 390 μm intervals. The sections were mounted on glass slides and stained with Van Gieson or Masson trichrome stain for quantitative analysis of scar size. Alarmin S100A8/A9 was detected using mouse anti-S100A8/A9 IgG1 antibody (Abcam, ab 130234, 1:100 dilution, O/N 4° C.). Goat anti-mouse IgG1 HRP-conjugated secondary antibody (Abcam, ab 97240, 1 h RT) was used and the staining was developed with ImmPACT™ DAB (Vector, SK-4105) chromogen as substrate. The slides were subsequently scanned using an Aperio digital pathology slide scanner (Leica Biosystems), and images were captured with the ImageScope software (Leica Biosystems). Left ventricle area and the infarcted area were measured on each section by using the BioPix iQ 2.5.0 software (Biopix AB). The size of the post-MI myocardial scar was expressed as percentage of the left ventricle volume below the coronary ligature.
MI induction and other procedures were carried out as outlined in Example 2. For long-term experiments of up to 21 days, a daily dose of 30 mg/Kg ABR-238901 was diluted in PBS and administered by daily i.p. injections for the first 3 days post-MI until the mice recovered and started to drink normally, and thereafter p.o. ad-libitum in meglumine buffer (FIG. 4A). Adequate treatment dosage was ensured by closely monitoring daily fluid intake.

[3] = target: T1, S100A9 binding to TLR4/MD2 (Homo sapiens, UniProt P06702); experiment: Surface plasmon resonance (Biacore 3000): inhibition of S100A9 binding to immobilized TLR4; settings: 50 nM recombinant human S100A9 over immobilized TLR4; response at late dissociation phase
T1 sequence (P06702 1-114): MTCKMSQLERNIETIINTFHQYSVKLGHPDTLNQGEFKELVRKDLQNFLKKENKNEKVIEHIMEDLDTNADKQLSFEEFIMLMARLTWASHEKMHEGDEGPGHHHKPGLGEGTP
From the text: (a) The molecular structure of ABR-238901. (b-c) Surface plasmon resonance measurement of S100A9 binding to immobilized RAGE (b) and TLR4 (c) in the presence of increasing ABR-238901 concentrations. The magnitude of the response for each ABR-238901 concentration (BABR-238901), measured at the late dissociation phase (t 350s), was expressed as percentage of the response in the absence of competitor (BO), and plotted against the concentration of ABR-238901.
Inhibition of S100A9 binding to RAGE and TLR4/MD2 by ABR-238901 was tested by surface plasmon resonance in a Biacore 3000 system (GE Healthcare, Uppsala, Sweden). Briefly, 50 nM of recombinant human S100A9 was injected over immobilized RAGE and TLR4 (2 min at 30 μL/min) in the presence of increasing concentrations of ABR-238901, ranging from 0.0488 to 100 μM. The magnitude of the responses measured at the late dissociation phase (t 350 s) in the presence of ABR-238901 (BABR-238901) were expressed as percentage of response in the absence of competitor (Bo), and plotted against the concentration of ABR-238901 (FIG. 7b-c). The curves were fit to a sigmoidal dose-response model with variable slope in Prism GraphPad for calculation of IC50.

[4] = tested on: C57BL/6 mice with sepsis induced by bacterial lipopolysaccharide; experiment: LPS-induced sepsis: mortality over 7 days; assay type: in vivo, mouse; settings: 30 mg/kg i.p. at 0 and 6 h after LPS; 7-day period
Protocol: General animal care, induction of sepsis and treatments were performed as described under Example 7. We initially included a total of 10 mice per treatment group, pooled from two independent experiments. To assess mortality after induction of sepsis, the mice were monitored at least three times a day for 7 days. […] The final group size was n=9 mice in the ABR-238901-treated group, and n=10 in the PBS-treated group. The experimental layout is outlined in FIG. 14A. Mice showing clinical signs of terminal illness that fulfilled the pre-specified termination points specified in the ethical permit awarded by the Lund University Ethics Committee were euthanized. Weight loss more than 20% is not considered a clinical sign of terminal illness, but was defined by the Ethical Committee as an experiment termination criterion.

COc1ncc(S(=O)(=O)Nc2cncc(Cl)c2O)cc1Br [ABR-238901, 5-bromo-N-(5-chloro-4-hydroxypyridin-3-yl)-6-methoxypyridine-3-sulfonamide]
S100A9-induced increase of Nur77 activity (NBRE and NurRE luciferase reporters) [1]: inhibited
Cardiac function (left ventricular ejection fraction) ([2]; 30 mg/Kg i.p. 3 days then p.o., echocardiography): progressive deterioration
Size of the myocardial scar ([2]; 21 days): increased
EDV vs controls ([2]; day 21): increased
ESV vs controls ([2]; day 21): increased
IC50 [3]: 2.1 µM
Animal survival [4]: 100%
